According to ChEMBL document CHEMBL4428095, “Evolution of physicochemical properties of melanin concentrating hormone receptor 1 (MCHr1) antagonists” (Bioorg Med Chem Lett, 2016):

How the values were obtained:
[1] = Protein binding in rat serum; assay type: ADME, cell-free
[2] = Protein binding in human serum; assay type: ADME, cell-free; conditions: read-out: PB (converted)
[3] = Protein binding in monkey serum; assay type: ADME, cell-free, Macaca mulatta; conditions: rhesus monkey, read-out: PB (converted)

Question: With `COc1cc(-n2cnc3cc(-c4ccc(Cl)cc4)sc3c2=O)ccc1OC[C@H](O)C1CC1` as the molecule, how does the PB [1] read?
Answer: The PB was 99.8%.

Question: What about the fraction unbound [2] of the same molecule?
Answer: Its fraction unbound is 0.005.

Question: And the fraction unbound [3]?
Answer: The fraction unbound was 0.007.
